Results as given in US8357350B2, “Annulus fibrosus detection in intervertebral discs using molecular imaging agents” (General Electric Company, priority 2009, dated 2013).

What was measured:
[1] = Fluorescence quantum yield versus Alexa Fluor 555 reference; type: physicochemical; settings: highest in FBS among DMSO, MeOH, PBS
Method: Absorbance and fluorescence spectra of the FM fluorophores were measured in PBS and absolute methanol (MeOH) using fiber-optic HR2000 (200-1100 nm) and USB2000FL (350-1000 nm) spectrometers (Ocean Optics, Dunedin, Fla.), respectively. Fluorescence excitation was provided by a 2 mW, 532 nm laser diode. The fluorescence and absorbance spectra of FORMULA II and FORMULA IA were collected in dimethyl sulfoxide (DMSO) and fetal bovine serum (FBS), as well as MeOH and PBS. The quantum yield of FORMULA II and FORMULA IA in DMSO, MeOH, FBS and PBS was measured by comparing the integrated fluorescence emission of the fluorophores in each solvent to the emission of Alexa Fluor 555 (Invitrogen) in PBS (quantum yield=10%) as a reference standard under conditions of matched absorbance at the excitation wavelength. The LogD of each FM fluorophore at pH 7.5 was calculated using Marvin 5.0.3 software (ChemAxon, Budapest, Hungary).

[2] = tested on: intervertebral discs (annulus fibrosus); test: Intraoperative imaging of the spine in a pig; type: in vivo, Yorkshire pig; settings: 0.47 mg/kg IV, 5 h
Method: Imaging was carried out at near infrared wavelenghts using a 400- to 700-nm “white” light (0.5 mW/cm^2) and a 725- to 775-nm NIR fluorescence excitation light (5 mW/cm^2). Fluorescence images were collected using exposure times ranging from 500 to 2000 msec. All images collected for comparison between vehicle-injected control animals and FM fluorophore-injected animals had the same exposure time and normalization. Color video images were collected on a separate optical channel using custom designed software. The excitation and emission LEDs and filter used for the FM fluorophores and Pam800 in the intraoperative imaging system are described as follows. For fluorescence excitation of FM 1-43, FM 2-10, FM 1-43FX and Formula IA, sixty 5-mm 470 nm LEDs ([…], Inc., Kyoto, Japan) fitted with 470±20 nm band pass (BP) excitation filters (Chroma Technology, Rockingham, Vt.) in custom holders were used, which produced a fluence rate on the imaging surface of 0.56 mW/cm^2. For fluorescence excitation of Formula II, FM 4-64, FM 4-64FX and FM 5-95, sixty 5-mm 535 nm LEDs fitted with 525±25 nm BP excitation filters were used, which produced a fluence rate on the imaging surface of 0.34 mW/cm^2. A 610±38 nm BP filter was used to detect fluorescence emission of FM 1-43, FM 2-10, Formula II, FM 1-43FX and Formula IA. To detect fluorescence emission of FM 4-64, FM 4-64FX and FM 5-95 a 720 nm long pass (LP) filter was used. For fluorescence excitation of Pam800, 348 5-mm 760 nm LEDs fitted with 764±17 nm BP excitation filters were used, which produced a fluence rate on the imaging surface of 8.73 mW/cm^2 and fluorescence emission was detected using a 824±24 nm BP emission filter. FORMULA IA was also evaluated in a Yorkshire pig. […] The pig was monitored under anesthesia during the drug incubation period, after which the animal was sacrificed. […] Tissues from mice, rats and pig were preserved for microscopic assessment and localization of fluorescence signal. […] Exposure times were adjusted between 5 and 2000 ms for fluorescence images.

- fluorescence quantum yield, times higher in FBS [1]: 5 times
SMILES: CCCCN(CCCC)c1ccc(/C=C/c2cc[n+](CCC[N+](C)(C)C)cc2)cc1.[Br-].[Br-] [Formula IA, (E)-4-(4-(dibutylamino)styryl)-1-(3-(trimethylammonio)propyl)pyridinium dibromide]
- contrast in the intervertebral discs of the pig [2]: dramatic positive contrast
- origin of signal within the disc (sagittal and axial sectioning) [2]: majority of the signal was emanating from the annulus fibrosus, and not the nucleus pulposus
- microscopic fluorescence pattern in disc sections ([2]; fluorescence microscopy vs H&E): punctate and linear following the lamellae structures of the annulus fibrosus
